Reference: patent US20160095843A1, “PYRAZOLOPYRROLIDINE DERIVATIVES AND THEIR USE IN THE TREATMENT OF DISEASE” (NOVARTIS AG, priority 2013, published 2016)

Columns and labels:
MV-4-11 cells = experiment: Cell growth inhibition assay (CellTiter-Glo), MV-4-11; format: cell-based; conditions: Homo sapiens, MV4-11
Outline: (§1)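 Leukemia lines grown in their own media were exposed for 4 days at 37° C. to 3-fold serial dilutions from 10 μM (0.1% DMSO). Viability by CellTiter-Glo ATP luminescence, corrected for background and day-0 plate; IC50 and TGI from four-parameter fit against vehicle (100%) and medium (−100%).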

K-562 cells = experiment: Cell growth inhibition assay (CellTiter-Glo), K-562; format: cell-based, human; conditions: for GI50: Homo sapiens, K562
Outline: as §1

THP-1 cells = experiment: Cell growth inhibition assay (CellTiter-Glo), THP-1; format: cell-based; conditions: Homo sapiens
Outline: as §1

SMILES	GI50 (MV-4-11 cells) [nM]	GI50 (K-562 cells) [nM]	GI50 (THP-1 cells) [nM]	IC (TGI) (K-562 cells) [nM]
Cc1nn(-c2ccnn2C)c2c1[C@H](c1ccc(Cl)cc1)N(c1cc(C)c3nnc(C)n3c1)C2=O [Example 124, (S)-4-(4-chlorophenyl)-5-(3,8-dimethyl-[1,2,4]triazolo[4,3-a]pyridin-6-yl)-3-methyl-1-(1-methyl-1H-pyrazol-5-yl)-4,5-dihydropyrrolo[3,4-c]pyrazol-6(1H)-one]	296	2520	695	
Cc1nn(-c2ccnn2C)c2c1[C@@H](c1ccc(Cl)cc1)N(c1cc(C)c3nnc(C)n3c1)C2=O [Example 125, (R)-4-(4-chlorophenyl)-5-(3,8-dimethyl-[1,2,4]triazolo[4,3-a]pyridin-6-yl)-3-methyl-1-(1-methyl-1H-pyrazol-5-yl)-4,5-dihydropyrrolo[3,4-c]pyrazol-6(1H)-one]	18.7	101	25.8	>10000
COc1ncccc1-n1nc(C)c2c1C(=O)N(c1cc(C)c(=O)n(C)c1)[C@H]2c1ccc(Cl)cc1 [Example 127, (S)-4-(4-chlorophenyl)-5-(1,5-dimethyl-6-oxo-1,6-dihydropyridin-3-yl)-1-(2-methoxypyridin-3-yl)-3-methyl-4,5-dihydropyrrolo-[3,4-c]pyrazol-6(1H)-one]	2260	> 10000	4230	
COc1ncccc1-n1nc(C)c2c1C(=O)N(c1cc(C)c(=O)n(C)c1)[C@@H]2c1ccc(Cl)cc1 [Example 128, (R)-4-(4-chlorophenyl)-5-(1,5-dimethyl-6-oxo-1,6-dihydropyridin-3-yl)-1-(2-methoxypyridin-3-yl)-3-methyl-4,5-dihydropyrrolo-[3,4-c]pyrazol-6(1H)-one]	34.5	183	64.6	>10000
Cc1nn(C2COC2)c2c1C(c1ccc(Cl)cc1)N(c1cc(C)c(=O)n(C)c1)C2=O (stereo not shown) [Example 135, 4-(4-chlorophenyl)-5-(1,5-dimethyl-6-oxo-1,6-dihydropyridin-3-yl)-3-methyl-1-(oxetan-3-yl)-4,5-dihydropyrrolo-[3,4-c]pyrazol-6(1H)-one]	79.9	616	86.1	
Cc1cc(N2C(=O)c3nn(C4COC4)c(C)c3C2c2ccc(Cl)cc2)cn2c(C)nnc12 (stereo not shown) [Example 136, 4-(4-chlorophenyl)-5-(3,8-dimethyl-[1,2,4]triazolo[4,3-a]pyridin-6-yl)-3-methyl-2-(oxetan-3-yl)-4,5-dihydropyrrolo-[3,4-c]pyrazol-6(2H)-one]	28.2	335	80.2	
Cc1nn(C2COC2)c2c1C(c1ccc(Cl)cc1)N(c1cc(C)c3nnc(C)n3c1)C2=O (stereo not shown) [Example 137, 4-(4-chlorophenyl)-5-(3,8-dimethyl-[1,2,4]triazolo[4,3-a]pyridin-6-yl)-3-methyl-1-(oxetan-3-yl)-4,5-dihydropyrrolo[3,4-c]pyrazol-6(1H)-one]	23.1	248	64	
Cc1nn(C(=O)N(C)C)c2c1C(c1ccc(Cl)cc1)N(c1cc(C)c(=O)n(C)c1)C2=O (stereo not shown) [Example 142]	79.3	712	239	
CNC(=O)n1nc(C)c2c1C(=O)N(c1cc(C)c(=O)n(C)c1)C2c1ccc(Cl)cc1 (stereo not shown) [Example 143, 4-(4-chlorophenyl)-5-(1,5-dimethyl-6-oxo-1,6-dihydropyridin-3-yl)-N,3-dimethyl-6-oxo-5,6-dihydropyrrolo-[3,4-c]pyrazole-1(4H)-carboxamide]	86	1200	300	
CNC(=O)n1nc2c(c1C)C(c1ccc(Cl)cc1)N(c1cc(C)c(=O)n(C)c1)C2=O (stereo not shown) [Example 144, 4-(4-chlorophenyl)-5-(1,5-dimethyl-6-oxo-1,6-dihydropyridin-3-yl)-N,3-dimethyl-6-oxo-5,6-dihydropyrrolo-[3,4-c]pyrazole-2(4H)-carboxamide]	59.8	432	214	
CNC(=O)n1nc2c(c1C)C(c1ccc(Cl)cc1)N(c1cc(C)c3nnc(C)n3c1)C2=O (stereo not shown) [Example 146, 4-(4-chlorophenyl)-5-(3,8-dimethyl-[1,2,4]triazolo[4,3-a]pyridin-6-yl)-N,3-dimethyl-6-oxo-5,6-dihydropyrrolo[3,4-c]pyrazole-2(4H)-carboxamide]	39.2	314	150	
CCc1c2c(nn1C(=O)N(C)C)C(=O)N(c1cc(C)c(=O)n(C)c1)C2c1ccc(Cl)cc1 (stereo not shown) [Example 148, 4-(4-chlorophenyl)-5-(1,5-dimethyl-6-oxo-1,6-dihydropyridin-3-yl)-3-ethyl-N,N-dimethyl-6-oxo-5,6-dihydropyrrolo-[3,4-c]pyrazole-2(4H)-carboxamide]	81.7	1130	157	
Cc1nn(C(=O)N(C)C)c2c1[C@@H](c1ccc(Cl)cc1)N(c1cc(C)c3nnc(C)n3c1)C2=O [Example 149, (R)-4-(4-chlorophenyl)-5-(3,8-dimethyl-[1,2,4]triazolo[4,3-a]pyridin-6-yl)-N,N,3-trimethyl-6-oxo-5,6-dihydropyrrolo-[3,4-c]pyrazole-1(4H)-carboxamide]	28	348	68.8	
Cc1cc(N2C(=O)c3nn(C(=O)N(C)C)c(C)c3[C@H]2c2ccc(Cl)cc2)cn2c(C)nnc12 [Example 150, (R)-4-(4-chlorophenyl)-5-(3,8-dimethyl-[1,2,4]triazolo[4,3-a]pyridin-6-yl)-N,N,3-trimethyl-6-oxo-5,6-dihydropyrrolo-[3,4-c]pyrazole-2(4H)-carboxamide]	55.5	406	101	

More lines, main results first:

GI50 (MV-4-11 cells) [nM]	GI50 (K-562 cells) [nM]	GI50 (THP-1 cells) [nM]	SMILES	IC (TGI) (K-562 cells) [nM]
404	4150	576	CC(=O)Nc1cc(N2C(=O)c3c(c(C)nn3C3CC3)C2c2ccc(Cl)cc2)nn2c(C)nnc12 (stereo not shown) [Example 126, N-(6-(4-(4-chlorophenyl)-1-cyclopropyl-3-methyl-6-oxopyrrolo[3,4-c]pyrazol-5-(1H,4H,6H)-yl)-3-methyl-[1,2,4]triazolo[4,3-b]pyridazin-8-yl)acetamide]	
16.1	195	35.7	COCc1nn(C2CC2)c2c1C(c1ccc(Cl)cc1)N(c1cc(C)c3nnc(C)n3c1)C2=O (stereo not shown) [Example 130, 4-(4-chlorophenyl)-1-cyclopropyl-5-(3,8-dimethyl-[1,2,4]triazolo[4,3-a]pyridin-6-yl)-3-(methoxymethyl)-4,5-dihydropyrrolo[3,4-c]pyrazol-6(1H)-one]	>10000
24.5	215	59.7	Cc1cc(N2C(=O)c3c(c(CO)nn3C3CC3)C2c2ccc(Cl)cc2)cn2c(C)nnc12 (stereo not shown) [Example 131, 4-(4-chlorophenyl)-1-cyclopropyl-5-(3,8-dimethyl-[1,2,4]triazolo[4,3-a]pyridin-6-yl)-3-(hydroxymethyl)-4,5-dihydropyrrolo-[3,4-c]pyrazol-6(1H)-one]	>10000
69	451	166	Cc1cc(N2C(=O)c3c(c(CO)nn3C3CC3)C2c2ccc(Cl)cc2)cn(C)c1=O (stereo not shown) [Example 133, 4-(4-chlorophenyl)-1-cyclopropyl-5-(1,5-dimethyl-6-oxo-1,6-dihydropyridin-3-yl)-3-(hydroxymethyl)-4,5-dihydropyrrolo-[3,4-c]pyrazol-6(1H)-one]	
117	574	161	Cc1cc(N2C(=O)c3nn(C4COC4)c(C)c3C2c2ccc(Cl)cc2)cn(C)c1=O (stereo not shown) [Example 134, 4-(4-chlorophenyl)-5-(1,5-dimethyl-6-oxo-1,6-dihydropyridin-3-yl)-3-methyl-2-(oxetan-3-yl)-4,5-dihydropyrrolo[3,4-c]pyrazol-6(2H)-one]	
251	2060	904	Cc1nn(C2CNC2)c2c1C(c1ccc(Cl)cc1)N(c1cc(C)c(=O)n(C)c1)C2=O (stereo not shown) [Example 138, 1-(azetidin-3-yl)-4-(4-chlorophenyl)-5-(1,5-dimethyl-6-oxo-1,6-dihydropyridin-3-yl)-3-methyl-4,5-dihydropyrrolo[3,4-c]pyrazol-6(1H)-one]	
72.9	591	190	Cc1cc(N2C(=O)c3nn(C4CN(C)C4)c(C)c3C2c2ccc(Cl)cc2)cn(C)c1=O (stereo not shown) [Example 139, 4-(4-chlorophenyl)-5-(1,5-dimethyl-6-oxo-1,6-dihydropyridin-3-yl)-3-methyl-2-(1-methylazetidin-3-yl)-4,5-dihydropyrrolo-[3,4-c]pyrazol-6(2H)-one]	
106	1370	392	Cc1nn(C2CN(C)C2)c2c1C(c1ccc(Cl)cc1)N(c1cc(C)c(=O)n(C)c1)C2=O (stereo not shown) [Example 140, 4-(4-chlorophenyl)-5-(1,5-dimethyl-6-oxo-1,6-dihydropyridin-3-yl)-3-methyl-1-(1-methylazetidin-3-yl)-4,5-dihydropyrrolo-[3,4-c]pyrazol-6(1H)-one]	
136	1190	281	Cc1cc(N2C(=O)c3nn(C(=O)N(C)C)c(C)c3C2c2ccc(Cl)cc2)cn(C)c1=O (stereo not shown) [Example 141]	
49.9	875	176	CNC(=O)n1nc(C)c2c1C(=O)N(c1cc(C)c3nnc(C)n3c1)C2c1ccc(Cl)cc1 (stereo not shown) [Example 145, 4-(4-chlorophenyl)-5-(3,8-dimethyl-[1,2,4]triazolo[4,3-a]pyridin-6-yl)-N,3-dimethyl-6-oxo-5,6-dihydropyrrolo[3,4-c]pyrazole-1(4H)-carboxamide]	
67	792	157	CCc1nn(C(=O)N(C)C)c2c1C(c1ccc(Cl)cc1)N(c1cc(C)c(=O)n(C)c1)C2=O (stereo not shown) [Example 147, 4-(4-chlorophenyl)-5-(1,5-dimethyl-6-oxo-1,6-dihydropyridin-3-yl)-3-ethyl-N,N-dimethyl-6-oxo-5,6-dihydropyrrolo[3,4-c]pyrazole-1(4H)-carboxamide]	
